Data: article doi:10.1101/2023.12.04.569845, “Identification of 4-(6-((2-methoxyphenyl)amino)pyrazin-2-yl)benzoic acids as CSNK2A inhibitors with antiviral activity and improved selectivity over PIM3” (bioRxiv, 2023)
Read-outs that look alike come from different tables or passages of the source. One block for each compound: values may come before it.

Assays:
Assay in all cases: biochemical
DAPK1 = DAPK1 (Homo sapiens, UniProt P53355); set-up: Thermal shift (DSF, SYPRO Orange) Tm shift of recombinant kinase domains at 10 uM compound
MEK4 = target: T1, MEK4 (Homo sapiens, UniProt P45985); set-up: Thermal shift (DSF, SYPRO Orange) Tm shift of recombinant kinase domains at 10 uM compound
T1 construct: gene MAP2K4; kinase domain
T1 sequence (P45985 1-399): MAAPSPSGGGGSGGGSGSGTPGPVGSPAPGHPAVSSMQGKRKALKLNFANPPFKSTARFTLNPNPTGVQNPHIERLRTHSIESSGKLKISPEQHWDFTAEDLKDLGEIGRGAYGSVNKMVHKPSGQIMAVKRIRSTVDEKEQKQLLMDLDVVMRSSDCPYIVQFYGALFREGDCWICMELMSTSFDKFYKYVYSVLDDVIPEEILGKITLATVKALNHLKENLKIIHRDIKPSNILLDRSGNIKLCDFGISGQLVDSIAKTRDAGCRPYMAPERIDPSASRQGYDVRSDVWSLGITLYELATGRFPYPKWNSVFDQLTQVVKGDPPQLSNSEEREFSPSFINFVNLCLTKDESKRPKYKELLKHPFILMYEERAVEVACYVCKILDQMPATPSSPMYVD

OSR1 = target: T2, OSR1 (Homo sapiens, UniProt O95747); set-up: Thermal shift (DSF, SYPRO Orange) Tm shift of recombinant kinase domains at 10 uM compound
T2 construct: gene OXSR1

PHKg2 = target: T3, PHKg2 (Homo sapiens, UniProt P15735); set-up: Thermal shift (DSF, SYPRO Orange) Tm shift of recombinant kinase domains at 10 uM compound
T3 construct: kinase domain
T3 sequence (P15735 1-406): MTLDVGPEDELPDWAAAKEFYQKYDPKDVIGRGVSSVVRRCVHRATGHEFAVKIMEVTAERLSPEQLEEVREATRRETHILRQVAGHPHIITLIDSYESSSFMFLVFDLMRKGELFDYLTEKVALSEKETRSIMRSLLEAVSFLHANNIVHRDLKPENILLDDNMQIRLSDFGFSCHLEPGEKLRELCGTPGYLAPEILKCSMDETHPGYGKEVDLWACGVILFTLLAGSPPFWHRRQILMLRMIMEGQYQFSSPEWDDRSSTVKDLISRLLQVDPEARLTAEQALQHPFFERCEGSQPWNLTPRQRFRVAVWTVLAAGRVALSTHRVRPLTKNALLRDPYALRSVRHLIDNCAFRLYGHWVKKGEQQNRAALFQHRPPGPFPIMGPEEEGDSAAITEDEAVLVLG

ATK3 = target: T4, ATK3 (Homo sapiens, UniProt Q9Y243); set-up: Thermal shift assay (SYPRO Orange DSF) of recombinant kinase domains; Tm shift
T4 construct: gene AKT3; kinase domain
Procedure: (§1) S23 Thermal stability kinase selectivity. The assay was performed as previously described. 9,10 Briefly, recombinant protein kinase domains at a concentration of 2 μM were mixed with 10 μM compound in a buffer containing 20 mM HEPES, pH 7.5, and 500 mM NaCl. SYPRO Orange (5000×, Invitrogen) was added as a fluorescence probe (1 µl per mL). Subsequently, temperature-dependent protein unfolding profiles were measured using the QuantStudio™ 5 realtime PCR machine (Thermo Fisher). Excitation and emission filters were set to 465 nm and 590 nm, respectively. The temperature was raised with a step rate of 3°C per minute. Data points were analysed with the internal software (Thermal Shift SoftwareTM Version 1.4, Thermo Fisher) using the Boltzmann equation to determine the inflection point of the transition curve.

TIF1 = target: T5, TIF1 (Homo sapiens, UniProt O15164); set-up: Thermal shift assay (SYPRO Orange DSF) of recombinant kinase domains; Tm shift
T5 construct: gene TRIM24
T5 sequence (O15164 1-1050): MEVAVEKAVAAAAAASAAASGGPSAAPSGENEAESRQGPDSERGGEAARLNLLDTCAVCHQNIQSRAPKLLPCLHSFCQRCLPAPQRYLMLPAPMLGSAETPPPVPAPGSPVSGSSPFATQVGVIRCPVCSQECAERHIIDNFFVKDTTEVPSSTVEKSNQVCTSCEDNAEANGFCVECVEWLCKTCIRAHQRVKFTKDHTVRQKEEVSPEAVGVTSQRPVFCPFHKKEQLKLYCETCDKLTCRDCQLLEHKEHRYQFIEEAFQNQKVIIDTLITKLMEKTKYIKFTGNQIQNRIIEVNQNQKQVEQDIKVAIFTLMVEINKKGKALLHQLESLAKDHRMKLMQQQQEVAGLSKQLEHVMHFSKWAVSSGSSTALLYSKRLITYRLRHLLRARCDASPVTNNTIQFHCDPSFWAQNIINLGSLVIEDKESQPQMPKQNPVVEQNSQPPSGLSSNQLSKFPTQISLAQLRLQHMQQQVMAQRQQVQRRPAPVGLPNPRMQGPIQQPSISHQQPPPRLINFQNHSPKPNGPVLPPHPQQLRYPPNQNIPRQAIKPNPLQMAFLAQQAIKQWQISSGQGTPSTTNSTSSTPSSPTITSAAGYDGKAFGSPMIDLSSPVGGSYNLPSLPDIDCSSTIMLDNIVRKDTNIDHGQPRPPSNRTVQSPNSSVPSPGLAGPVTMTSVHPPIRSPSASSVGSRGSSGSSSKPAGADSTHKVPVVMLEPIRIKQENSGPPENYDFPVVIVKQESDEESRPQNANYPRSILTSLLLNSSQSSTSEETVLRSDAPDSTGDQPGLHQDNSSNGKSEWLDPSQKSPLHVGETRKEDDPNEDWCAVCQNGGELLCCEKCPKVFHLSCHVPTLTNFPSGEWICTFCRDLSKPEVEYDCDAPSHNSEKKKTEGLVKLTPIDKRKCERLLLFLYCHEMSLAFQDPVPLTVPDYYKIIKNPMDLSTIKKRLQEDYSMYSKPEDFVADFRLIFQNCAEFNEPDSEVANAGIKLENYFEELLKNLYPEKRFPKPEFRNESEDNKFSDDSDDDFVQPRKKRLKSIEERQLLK
Procedure: as §1

Chain of DAPK1 (P53355 whole entry, the tested form may be a part): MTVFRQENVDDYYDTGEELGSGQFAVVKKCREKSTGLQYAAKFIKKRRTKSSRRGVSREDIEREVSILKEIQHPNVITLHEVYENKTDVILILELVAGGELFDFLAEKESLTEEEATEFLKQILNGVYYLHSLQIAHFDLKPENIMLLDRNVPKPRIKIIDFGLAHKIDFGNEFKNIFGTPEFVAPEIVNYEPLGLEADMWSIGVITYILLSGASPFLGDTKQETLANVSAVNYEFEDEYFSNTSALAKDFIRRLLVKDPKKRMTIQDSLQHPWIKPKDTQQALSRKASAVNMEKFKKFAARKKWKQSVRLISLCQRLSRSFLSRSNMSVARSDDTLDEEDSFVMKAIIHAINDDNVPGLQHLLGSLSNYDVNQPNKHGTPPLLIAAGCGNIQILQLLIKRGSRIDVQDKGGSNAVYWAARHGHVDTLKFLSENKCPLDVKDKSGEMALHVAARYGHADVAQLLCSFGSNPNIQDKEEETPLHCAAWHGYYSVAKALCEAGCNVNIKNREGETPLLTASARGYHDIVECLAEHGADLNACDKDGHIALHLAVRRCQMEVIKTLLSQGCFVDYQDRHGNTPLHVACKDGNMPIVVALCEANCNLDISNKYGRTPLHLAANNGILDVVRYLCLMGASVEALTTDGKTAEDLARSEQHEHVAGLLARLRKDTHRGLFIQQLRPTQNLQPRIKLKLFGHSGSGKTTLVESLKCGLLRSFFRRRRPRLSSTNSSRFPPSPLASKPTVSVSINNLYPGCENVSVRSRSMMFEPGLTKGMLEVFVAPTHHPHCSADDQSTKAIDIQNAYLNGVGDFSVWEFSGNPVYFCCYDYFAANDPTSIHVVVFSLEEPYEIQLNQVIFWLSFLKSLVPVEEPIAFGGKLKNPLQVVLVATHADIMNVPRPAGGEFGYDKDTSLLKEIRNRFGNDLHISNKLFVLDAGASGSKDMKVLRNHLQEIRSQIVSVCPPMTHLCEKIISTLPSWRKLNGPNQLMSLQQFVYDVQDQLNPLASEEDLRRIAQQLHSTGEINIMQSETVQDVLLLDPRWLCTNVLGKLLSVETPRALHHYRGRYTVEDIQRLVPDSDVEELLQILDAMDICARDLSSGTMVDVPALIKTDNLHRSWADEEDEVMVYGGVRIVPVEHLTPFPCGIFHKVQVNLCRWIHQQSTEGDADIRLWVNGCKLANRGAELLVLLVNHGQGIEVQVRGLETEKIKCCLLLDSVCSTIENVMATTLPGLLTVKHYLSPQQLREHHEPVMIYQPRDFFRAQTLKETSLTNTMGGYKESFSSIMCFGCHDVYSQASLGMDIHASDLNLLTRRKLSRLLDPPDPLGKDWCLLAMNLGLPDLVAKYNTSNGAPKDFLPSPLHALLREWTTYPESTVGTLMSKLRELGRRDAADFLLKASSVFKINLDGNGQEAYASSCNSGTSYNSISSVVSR
T2 sequence (O95747 whole entry, the tested form may be a part): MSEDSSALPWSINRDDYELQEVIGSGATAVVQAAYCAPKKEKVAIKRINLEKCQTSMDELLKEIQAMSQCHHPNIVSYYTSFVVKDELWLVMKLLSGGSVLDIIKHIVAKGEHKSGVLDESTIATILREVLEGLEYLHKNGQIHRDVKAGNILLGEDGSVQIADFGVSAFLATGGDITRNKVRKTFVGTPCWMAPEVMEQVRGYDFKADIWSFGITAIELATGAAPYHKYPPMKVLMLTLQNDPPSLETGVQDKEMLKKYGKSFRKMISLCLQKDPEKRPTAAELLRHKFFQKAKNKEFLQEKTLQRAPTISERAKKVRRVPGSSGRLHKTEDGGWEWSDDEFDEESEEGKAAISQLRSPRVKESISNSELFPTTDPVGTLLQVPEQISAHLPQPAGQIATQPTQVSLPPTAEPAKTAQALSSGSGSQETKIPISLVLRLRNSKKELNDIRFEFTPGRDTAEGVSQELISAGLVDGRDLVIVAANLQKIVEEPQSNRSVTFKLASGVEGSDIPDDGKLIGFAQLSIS
T4 sequence (Q9Y243 whole entry, the tested form may be a part): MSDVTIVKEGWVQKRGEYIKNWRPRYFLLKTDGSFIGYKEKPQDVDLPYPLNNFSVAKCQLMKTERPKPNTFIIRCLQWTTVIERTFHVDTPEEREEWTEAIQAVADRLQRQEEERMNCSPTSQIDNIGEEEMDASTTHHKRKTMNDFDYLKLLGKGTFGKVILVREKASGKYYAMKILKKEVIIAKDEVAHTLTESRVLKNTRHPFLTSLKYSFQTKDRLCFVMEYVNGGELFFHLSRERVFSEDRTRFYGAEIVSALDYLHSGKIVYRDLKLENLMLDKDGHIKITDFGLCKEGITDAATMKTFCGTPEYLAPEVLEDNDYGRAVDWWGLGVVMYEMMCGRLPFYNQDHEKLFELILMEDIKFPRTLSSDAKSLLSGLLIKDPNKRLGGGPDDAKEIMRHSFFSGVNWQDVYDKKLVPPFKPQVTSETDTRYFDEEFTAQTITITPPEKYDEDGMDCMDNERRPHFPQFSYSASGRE

- ΔTm at 10 µM (DAPK1; read-out: 7c): 6 °C
- ΔTm at 10 µM (MEK4; read-out: 7c): 2 °C
- ΔTm at 10 µM (OSR1; read-out: 7c): 0 °C
- ΔTm at 10 µM (PHKg2; read-out: 7c): 3 °C
- ΔTm at 10 µM (ATK3; read-out: 7c): -1 °C
- ΔTm at 10 µM (TIF1; read-out: 7c): -1 °C
SMILES: COc1ccc(OC(C)C)cc1Nc1cncc(-c2ccc(C(=O)O)cc2)n1 [7c]

- ΔTm at 10 µM (DAPK1; read-out: 6c): 7 °C
- ΔTm at 10 µM (MEK4; read-out: 6c): 9 °C
- ΔTm at 10 µM (OSR1; read-out: 6c): -2 °C
- ΔTm at 10 µM (PHKg2; read-out: 6c): 5 °C
- ΔTm at 10 µM (ATK3; read-out: 6c): -1 °C
- ΔTm at 10 µM (TIF1; read-out: 6c): -2 °C
SMILES: CC(C)Oc1ccc2ccn(-c3cncc(-c4ccc(C(=O)O)cc4)n3)c2c1 [6c]

- ΔTm at 10 µM (DAPK1; read-out: 2): 9 °C
- ΔTm at 10 µM (MEK4; read-out: 2): 5 °C
- ΔTm at 10 µM (OSR1; read-out: 2): -1 °C
- ΔTm at 10 µM (PHKg2; read-out: 2): 8 °C
- ΔTm at 10 µM (ATK3; read-out: 2): 1 °C
- ΔTm at 10 µM (TIF1; read-out: 2): 0 °C
SMILES: CC(C)Nc1ccc2cnn(-c3cncc(-c4ccc(C(=O)O)cc4)n3)c2c1 [compound 2, 2]
